Where a name gives a salt, the structure may show the parent alone.
Columns and labels:
Format in all cases: cell-based
[1] = system: Acinetobacter lwoffii; experiment: Mixed culture on solid medium with substrate and ferric ion; conditions: mixed culture with Escherichia coli
Procedure: (§1) The limitations of using a substrate which generates a diffusible end product after hydrolysis on a solid medium are known by those skilled in the art. […] For example a culture plate was prepared containing solid medium and the chromogenic enzyme substrate 3′,4′-dihydroxyflavone-4′-β-D-ribofuranoside along with ferric ion. A culture containing roughly equal numbers of Escherichia coli (β-D-ribofuranosidase positive) and Acinetobacter lwoffii (β-D-ribofuranosidase negative) was grown on the medium. […] The A. lwoffii colonies were colourless. It was possible to differentiate the two species even when the colonies were virtually coincident.

[2] = system: Escherichia coli; experiment: as above; conditions: mixed culture with Acinetobacter lwoffii
Procedure: as §1

[3] = system: E. coli; experiment: Hydrolysis on Columbia agar with ferric ammonium citrate; design: β-Riboside (hydrolysis): key to the marks not given beside the values
Procedure: (§2) The chromogenic β-D-ribofuranoside substrate was added to Columbia agar at a substrate concentration of 300 mg/l. Ferric ammonium citrate was included at 500 mg/l. All ingredients were autoclaved at 116° C. for 20 minutes to ensure sterilisation. Agar plates were then prepared in 90 mm petri dishes. The substrate caused a yellow colouration of the agar.
(§3) For each strain tested, a bacterial suspension was prepared in sterile deionised water at an inoculum of approximately 1.5×10^8 colony forming units per ml. This was achieved using a densitometer. 1 μl of each bacterial suspension was then inoculated onto each plate using a multipoint inoculator. Strains were inoculated in parallel onto Columbia agar containing ferric ammonium citrate with no substrate (negative control).
(§4) After 18 hours incubation, strains were examined visually for the presence of colour. Any strains producing a black colouration on substrate containing media but not on the negative control plates were deemed to be hydrolysing the substrate.

[4] = system: K. pneumoniae; experiment: as above; design: β-Riboside (hydrolysis): key to the marks not given beside the values
Procedure: as §2, §3, §4

[5] = system: Shigella sonnei; experiment: as above; design: β-Riboside (hydrolysis): key to the marks not given beside the values
Procedure: as §2, §3, §4

[6] = system: E. aerogenes; experiment: as above; design: β-Riboside (hydrolysis): key to the marks not given beside the values
Procedure: as §2, §3, §4

[7] = system: E. coli 0157; experiment: as above; design: key to the marks not given beside the values
Procedure: as §2, §3, §4

[8] = system: Salmonella typhi; experiment: as above; design: key to the marks not given beside the values; conditions: Salmonella typhi NCTC 8385
Procedure: as §2, §3, §4

[9] = system: Salmonella motevideo; experiment: as above; design: key to the marks not given beside the values; conditions: Salmonella motevideo SAX 55
Procedure: as §2, §3, §4

[10] = system: Salmonella hadar; experiment: as above; design: key to the marks not given beside the values; conditions: Salmonella hadar SAX 57
Procedure: as §2, §3, §4

[11] = system: Serratia marcescens; experiment: as above; design: key to the marks not given beside the values; conditions: Serratia marcescens NCTC 10211
Procedure: as §2, §3, §4

[12] = system: Shigella flexneri; experiment: as above; design: key to the marks not given beside the values
Procedure: as §2, §3, §4

[13] = system: Salmonella oranienburg; experiment: as above; design: key to the marks not given beside the values; conditions: Salmonella oranienburg SAX 56
Procedure: as §2, §3, §4

[14] = system: Serratia spp.; experiment: as above; design: key to the marks not given beside the values
Procedure: as §2, §3, §4

[15] = system: Staphylococcus aureus; experiment: as above; design: key to the marks not given beside the values
Procedure: as §2, §3, §4

[16] = system: Vibrio harveyi; experiment: as above; design: key to the marks not given beside the values; conditions: Vibrio harveyi NCTC 11346
Procedure: as §2, §3, §4

[17] = system: Staphylococcus saprophyticus; experiment: as above; design: key to the marks not given beside the values
Procedure: as §2, §3, §4

[18] = system: Shigella boydii; experiment: as above; design: key to the marks not given beside the values
Procedure: as §2, §3, §4

[19] = system: Salmonella alachia; experiment: as above; design: key to the marks not given beside the values; conditions: Salmonella alachia SAX 60
Procedure: as §2, §3, §4

[20] = system: Salmonella orthmarchen; experiment: as above; design: key to the marks not given beside the values; conditions: Salmonella orthmarchen SAX 59
Procedure: as §2, §3, §4

[21] = system: Vibrio fluvialis; experiment: as above; design: key to the marks not given beside the values; conditions: Vibrio fluvialis NCTC 11327
Procedure: as §2, §3, §4

[22] = system: Salmonella typhimurium; experiment: as above; design: key to the marks not given beside the values; conditions: Salmonella typhimurium NCTC 74
Procedure: as §2, §3, §4

[23] = system: K. oxytoca; experiment: as above; design: key to the marks not given beside the values
Procedure: as §2, §3, §4

[24] = system: Aeromonas hydrophila; experiment: as above; design: key to the marks not given beside the values; conditions: Aeromonas hydrophila NCTC 8049
Procedure: as §2, §3, §4

`O=c1cc(-c2ccc(OC3OC(CO)C(O)C3O)c(O)c2)oc2ccccc12` [DHF-riboside, 3′,4′-Dihydroxyflavone-4′-β-D-ribofuranoside sodium salt] was tested, and the “Colour of A. lwoffii colonies” value [1] was “colourless”, the “Colour of E. coli colonies” value [2] was “intense black colonies” and the “β-Riboside (hydrolysis)” value ([3]; E. coli ECO 2) was “++”. For the same compound, the “β-Riboside (hydrolysis)” value ([3]; E. coli ECO 3) was “++”, the “β-Riboside (hydrolysis)” value ([3]; E. coli ECO 4) was “++” and the “β-Riboside (hydrolysis)” value ([3]; E. coli ECO 5) was “++”. For the same compound, the “β-Riboside (hydrolysis)” value ([3]; E. coli ECO 6) was “++”, the “β-Riboside (hydrolysis)” value ([3]; E. coli ECO 7) was “++” and the “β-Riboside (hydrolysis)” value ([3]; E. coli ECO 8) was “++”. For the same compound, the “β-Riboside (hydrolysis)” value ([3]; E. coli ECO 9) was “++”, the “β-Riboside (hydrolysis)” value ([3]; E. coli ECO 10) was “++” and the “β-Riboside (hydrolysis)” value ([3]; E. coli ECO 11) was “++”. The “β-Riboside (hydrolysis)” value ([3]; E. coli ECO 12) was “++”, the “β-Riboside (hydrolysis)” value ([3]; E. coli NCTC 10418) was “++” and the “β-Riboside (hydrolysis)” value ([4]; K. pneumoniae KPN 2) was “++”. For the same compound, the “β-Riboside (hydrolysis)” value ([4]; K. pneumoniae KPN 3) was “++”, the “β-Riboside (hydrolysis)” value ([4]; K. pneumoniae KPN 4) was “++” and the “β-Riboside (hydrolysis)” value ([4]; K. pneumoniae NCTC 10896) was “++”. For the same compound, the “β-Riboside (hydrolysis)” value ([5]; Shigella sonnei NCTC 8219) was “++”, the “β-Riboside (hydrolysis)” value ([5]; Shigella sonnei NCTC 8574) was “++” and the “β-Riboside (hydrolysis)” value ([5]; Shigella sonnei NCTC 8586) was “++”. The “β-Riboside (hydrolysis)” value ([5]; Shigella sonnei NCTC 9774) was “++”, the “β-Riboside (hydrolysis)” value ([5]; Shigella sonnei NCTC 10352) was “++” and the “β-Riboside (hydrolysis)” value ([6]; E. aerogenes EAE 1) was “++”. The “β-Riboside (hydrolysis)” value ([6]; E. aerogenes NCIMB 10102) was “++”, the “β-Riboside (hydrolysis)” value ([7]; E. coli 0157 NCTC 12079) was “++” and the “β-Riboside (hydrolysis)” value ([7]; E. coli 0157 NCTC 12080) was “++”. For the same compound, the “β-Riboside (hydrolysis)” value ([7]; E. coli 0157 NCTC 12900) was “++”, the “β-Riboside (hydrolysis)” value ([7]; E. coli 0157 NCTC 13125) was “++” and the “β-Riboside (hydrolysis)” value ([7]; E. coli 0157 NCTC 13126) was “++”. For the same compound, the “β-Riboside (hydrolysis)” value ([7]; E. coli 0157 NCTC 13127) was “++”, the “β-Riboside (hydrolysis)” value ([7]; E. coli 0157 NCTC 13128) was “++” and the “β-Riboside (hydrolysis)” value [8] was “++”. The “β-Riboside (hydrolysis)” value [9] was “++”, the “β-Riboside (hydrolysis)” value [10] was “++” and the “β-Riboside (hydrolysis)” value [11] was “++”. For the same compound, the “β-Riboside (hydrolysis)” value ([12]; Shigella flexneri NCTC 8192) was “++”, the “β-Riboside (hydrolysis)” value ([12]; Shigella flexneri NCTC 9723) was “++” and the “β-Riboside (hydrolysis)” value ([12]; Shigella flexneri NCTC 9780) was “++”. For the same compound, the “β-Riboside (hydrolysis)” value [13] was “++”, the “β-Riboside (hydrolysis)” value ([14]; Serratia spp. SEX 1) was “++” and the “β-Riboside (hydrolysis)” value ([14]; Serratia spp. SEX 2) was “++”. The “β-Riboside (hydrolysis)” value ([14]; Serratia spp. SEX 3) was “++”, the “β-Riboside (hydrolysis)” value ([14]; Serratia spp. SEX 4) was “++” and the “β-Ribofuranoside (hydrolysis)” value ([15]; Reference No. 1) was “++”. For the same compound, the “β-Ribofuranoside (hydrolysis)” value ([15]; Reference No. 2) was “++”, the “β-Ribofuranoside (hydrolysis)” value ([15]; Reference No. 3) was “++” and the “β-Ribofuranoside (hydrolysis)” value ([15]; Reference No. 4) was “++”. The “β-Ribofuranoside (hydrolysis)” value ([15]; Reference No. 5) was “++”, the “β-Riboside (hydrolysis)” value [16] was “++” and the “β-Ribofuranoside (hydrolysis)” value ([17]; Reference No. 1) was “++”. For the same compound, the “β-Ribofuranoside (hydrolysis)” value ([17]; Reference No. 2) was “++”, the “β-Ribofuranoside (hydrolysis)” value ([17]; Reference No. 3) was “++” and the “β-Ribofuranoside (hydrolysis)” value ([17]; Reference No. 4) was “++”. For the same compound, the “β-Ribofuranoside (hydrolysis)” value ([17]; Reference No. 5) was “++”, the “β-Riboside (hydrolysis)” value ([18]; Shigella boydii NCTC 9327) was “++” and the “β-Riboside (hydrolysis)” value ([18]; Shigella boydii NCTC 9732) was “++”. The “β-Riboside (hydrolysis)” value ([18]; Shigella boydii NCTC 9850) was “++”, the “β-Riboside (hydrolysis)” value [19] was “++” and the “β-Riboside (hydrolysis)” value [20] was “++”. For the same compound, the “β-Riboside (hydrolysis)” value [21] was “++”, the “β-Riboside (hydrolysis)” value [22] was “++” and the “β-Riboside (hydrolysis)” value ([23]; K. oxytoca KOX 1) was “++”. For the same compound, the “β-Riboside (hydrolysis)” value ([23]; K. oxytoca KOX 2) was “++” and the “β-Riboside (hydrolysis)” value [24] was “++”.
